Measurements as given in paper PMC10520499, “Next step in the development of mesoprogestins: the preclinical profile of EC313” (Frontiers in Endocrinology, 2023).
Values joined by “and” are separate entries in the source; they are usually repeats but may differ in a detail not shown here. Identical values can stand only once.

How the values were obtained:
[1] = target: T1, hGR-LBD purified recombinant protein (Homo sapiens, UniProt P04150); test: Competitive binding, GR ligand binding domain
T1 construct: purchased Thermo Fisher Scientific
T1 sequence (P04150 524-758 limits assumed): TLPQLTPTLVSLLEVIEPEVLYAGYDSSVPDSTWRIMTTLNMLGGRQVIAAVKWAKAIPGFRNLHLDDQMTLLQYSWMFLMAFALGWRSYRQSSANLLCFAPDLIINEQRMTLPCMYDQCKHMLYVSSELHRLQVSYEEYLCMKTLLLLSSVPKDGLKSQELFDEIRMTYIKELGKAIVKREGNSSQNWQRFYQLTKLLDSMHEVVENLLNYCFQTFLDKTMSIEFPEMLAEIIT
Description: The study aimed to characterize the competitive binding profile of EC313 to relevant human nuclear receptors. For the assays, commercially available ‘ligand binding domain’ proteins were purchased (Thermo Fisher Scientific). In addition, the full-length receptor proteins were expressed in transfected HI insect cells using the `Bac-to-bac Baculovirus expression system´ (Thermo Fisher Scientific). Cellular lysates served as receptor preparation. Receptor protein preparations were incubated with tritiated reference ligands and EC313 or reference steroids at concentrations between 0.1 and 1000 nM for 2h at 4°C to reach equilibrium. Subsequently, unbound steroids were adsorbed to dextran-coated charcoal (Sigma Aldrich), separated by filtration, and the remaining radioactivity was quantified in a ß-counter (Perkin Elmer). Displacement curves were fitted using the GraphPad Prism 7 free version to obtain EC50 values. Relative binding affinity (RBA [%], (C50ref/C50test)*100) and the competition coefficient (C50test/C50ref) were used to describe the relative binding potency of EC313 compared to the reference ligands.

[2] = target: T2, human mineralocorticoid receptor (hMR) (Homo sapiens, UniProt P08235); test: MR transactivation (U2OS, MMTV-LUC); format: cell-based
T2 construct: host or cells: U2OS, transient co-transfection
T2 sequence (P08235 1-984): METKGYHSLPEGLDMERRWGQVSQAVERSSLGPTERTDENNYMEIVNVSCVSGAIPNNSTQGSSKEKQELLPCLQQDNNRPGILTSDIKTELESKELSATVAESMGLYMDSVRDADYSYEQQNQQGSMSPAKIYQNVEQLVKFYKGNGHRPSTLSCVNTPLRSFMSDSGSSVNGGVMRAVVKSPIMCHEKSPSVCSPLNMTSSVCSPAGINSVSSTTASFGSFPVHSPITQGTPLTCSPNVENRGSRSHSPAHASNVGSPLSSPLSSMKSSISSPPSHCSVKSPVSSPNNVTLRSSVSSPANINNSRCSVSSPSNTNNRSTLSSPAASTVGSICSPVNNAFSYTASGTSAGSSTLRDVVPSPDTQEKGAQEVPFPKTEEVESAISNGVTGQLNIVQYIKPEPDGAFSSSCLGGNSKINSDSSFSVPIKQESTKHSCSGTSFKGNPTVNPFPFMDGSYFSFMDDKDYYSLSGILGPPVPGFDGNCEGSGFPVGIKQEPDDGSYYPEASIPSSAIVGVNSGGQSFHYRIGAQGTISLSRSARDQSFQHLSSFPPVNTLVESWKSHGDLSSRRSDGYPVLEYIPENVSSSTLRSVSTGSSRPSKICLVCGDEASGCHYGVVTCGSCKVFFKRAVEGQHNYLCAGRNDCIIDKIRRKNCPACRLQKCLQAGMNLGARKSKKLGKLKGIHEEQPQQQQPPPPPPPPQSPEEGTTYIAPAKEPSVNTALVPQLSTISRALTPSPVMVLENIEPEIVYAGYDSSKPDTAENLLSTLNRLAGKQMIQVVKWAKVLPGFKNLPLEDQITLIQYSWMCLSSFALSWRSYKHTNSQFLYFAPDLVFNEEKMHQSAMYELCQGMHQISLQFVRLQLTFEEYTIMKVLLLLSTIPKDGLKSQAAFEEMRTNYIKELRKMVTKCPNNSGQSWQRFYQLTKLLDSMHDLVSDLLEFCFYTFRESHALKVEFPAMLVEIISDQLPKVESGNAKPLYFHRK
Description: The U2OS cell line which expresses the mineralocorticoid receptor was used to study the gene expression on the transcriptional level under the influence of EC313 and the reference compound. The cells were transfected with a vector encoding a human full-length mineralocorticoid receptor (hMR) linked to the reporter vector MMTV/LUC. Cells were transiently and stably transfected in order to reach high protein expression. Next, co-transfected U2OS cells carrying mineralocorticoid receptors and reporter vector MMTV/LUC were stimulated by the tested compounds (Aldosterone or EC313) or the mixture: aldosterone and an appropriate range of concentrations of EC313. The agonist and antagonist properties of EC313 toward tested receptor MR were analyzed using luminescence detection.
In order to develop the transfection assay, plasmid-included vectors coding sequences for the receptor as well as the reporter gene were generated and isolated, respectively. Vector pcDNA3.1 coding sequence for full length of human MR (MR cDNA ORF clone in pcDNA3.1+/C-(K)-DYK) was used as an expression vector for MR and was linked to the reporter system (pGL4.36-MMTV/LUC) building with vector pGL4.36 coding the mineralocorticoid responsive element (MMTV) and firefly luciferase [luc2P/Hygro].
Transfection was performed on a 96-well plate (15.5x10^3 cells per well) in culture medium (RPMI phenol red, 10% FBS, L-Glu) w/o antibiotics according to the manufacturer’s specification. Prior to transfection, plated cells were approximately 70%–80% confluent. 24h later, cells were treated with test compounds overnight.
The properties of EC313 to induce/inhibit tested receptor was studied in agonistic and antagonistic approaches. Co-transfected U2OS cells were stimulated with either aldosterone (0.009 nM - 1200 nM) or EC313 (0.009 nM - 1200 nM) in order to determine and compare the agonist potential of test compounds. The antagonistic activity was checked in competitive interaction between EC313 (0.009 nM - 1200 nM) and 0.4 nM of Aldosterone.

[3] = test system: cycling guinea pigs; test: Ovulation inhibition in cycling guinea pigs; format: in vivo, guinea pig; details: for Number of ovulations vs. number of inseminated females: cycle days 10-17
Description: Test compounds were administered once daily from cycle days 10-17 by s. c. injection using 0.2 mL vehicle (benzyl-benzoate/castor oil, ratio 1 + 4 v/v). The time of autopsy (day 18) was 24-48h after the expected ovulation at the end of the treatment cycle. This design permits the study of the effects of the tested compounds on the expected ovulation. Fresh CL were evidence of a recent ovulation.

[4] = Aqueous solubility; format: physicochemical
[5] = test system: human uterine fibroid xenografts; parameters: method as in PMID 31754172; details: ref [2], cited from earlier work
[6] = GR-LBD, EC313 relative to Dexamethasone

For `C[C@]12C[C@H](c3ccc(-c4ccoc4)cc3)C3=C4CCC(=O)C=C4CC[C@H]3[C@@H]1CC[C@]21OCCC1=C(F)F` [EC313], the “Comp. Coefficient” value [1, 6] was 2 and 1.7, the RBA [1, 6] was 60% and the IC50 ([1]; hGR-LBD purified recombinant protein) was 19.1 ± 0.9 nM. For the same compound, the “transactivation of hMR (agonism)” value [2] was “does not transactivate hMR”, the “fold lower potency than Spironolactone” value ([2]; MR antagonism) was “approximately 80 fold” and the IC50 ([2]; MR, 0.4 nM Aldosterone, read-out: IC50, antagonism of Aldosterone-induced transactivation) was 2000 nM and ~2000 nM. For the same compound, the “Number of ovulations vs. number of inseminated females” value ([3]; 0.1 mg/animal/day s.c.) was 1/5, the “Number of ovulations vs. number of inseminated females” value ([3]; 1.0 mg/animal/day s.c.) was 0/5 and the “Number of ovulations vs. number of inseminated females” value ([3]; 10.0 mg/animal/day s.c.) was 0/8. For the same compound, the “inhibition of ovulation” value ([3]; 1 and 10 mg/animal/day s.c.) was “Full inhibition of ovulation”, the “effects in the vaginal epithelium” value ([3]; non-pregnant guinea pigs, all tested dose levels, 0.1 to 10.0 mg/animal/day s.c.) was “mucification” and the aqueous solubility [4] was “very low aqueous solubility”. The “uterine fibroid markers desmin and collagen” value ([5]; Part A, 0.1 and 1.0 mg EC313/kg/day) was “markedly reduced”, the fibroid xenograft weight ([5]; Part A, 0.1 and 1.0 mg/kg/day s.c., 60 days) was “reduced the fibroid xenograft weight dose-dependently” and the “levels of ER and PR in grafts (immunohistochemistry)” value ([5]; Part A, vs control p< 0.001, vs UPA p< 0.01) was “reduced”. For the same compound, the “E2-induced proliferation in xenograft fibroids” value ([5]; Part A, vs control, p< 0.0001) was “blocked significantly” and the “lowest effective dosage, uterine fibroid model” value ([5]; demonstrated previously) was 0.1 mg/kg/day s.c.
